Experimental data published in US8389509B2, “Substituted pyrazole compounds” (Bristol-Myers Squibb Company, priority 2009, dated 2013).
Counter-ions that a name gives are not always drawn.

Assays:
[1] = biological target: T1, S1P1 (Homo sapiens, UniProt P21453); test: S1P1 Binding Assay (33P-S1P competition, CHO membranes); details: membranes of CHO cells expressing human S1P1, 33P-S1P ligand; read-out: S1P1 B IC50
T1 construct: expressed in transfected cells; host or cells: CHO cells
Method: Membranes were prepared from CHO cells expressing human S1P1. Cells were dissociated in buffer containing 20 mM HEPES, pH 7.5, 50 mM NaCl, 2 mM EDTA and Protease Inhibitor cocktail (Roche), and disrupted on ice using the Polytron homogenizer. The homogenate was centrifuged at 20,000 rpm (48,000 g) and the supernatant was discarded. The membrane pellets were resuspended in buffer containing 50 mM HEPES, pH 7.5, 100 mM NaCl, 1 mM MgCl2, 2 mM EDTA and stored in aliquots at −80° C. after protein concentration determination.
Membranes (2 μg/well) and 0.03 nM final concentration of ^33P-S1P ligand (1 mCi/ml, American Radiolabeled Chemicals) were added to the compound plates. Binding was performed for 60 min at room temperature, terminated by collecting the membranes onto GF/B filter plates, and radioactivity was measured by TOPCOUNT®. The competition data of the test compounds over a range of concentrations was plotted as percentage inhibition of radioligand specific binding. The IC50 is defined as the concentration of competing ligand needed to reduce specific binding by 50%.
Compounds of the present invention and Comparative Compound A were tested in the S1P1 binding assay described hereinabove and the results rounded to two digits, shown in Table A were obtained. In some instances, the value is an average of multiple experiments where N is the number of experiments conducted that provided satisfactory dose response curves. When more than one batch of an example was tested, the value presented is from the batch which allowed a comparison of GTPγS S1P1 and GTPγS S1P3 in Method A (Data shown in Table B). Data was not averaged across different batches of an example compound.

[2] = biological target: S1P3 (Homo sapiens, UniProt Q99500); test: Method B: Receptor [35S] GTPγS SPA Binding Assay, S1P3; format: biochemical; parameters: expressed in transfected cells; host or cells: CHO cells; details: S1P3 transfected CHO cell membranes
Chain of S1P3 (Q99500 whole entry): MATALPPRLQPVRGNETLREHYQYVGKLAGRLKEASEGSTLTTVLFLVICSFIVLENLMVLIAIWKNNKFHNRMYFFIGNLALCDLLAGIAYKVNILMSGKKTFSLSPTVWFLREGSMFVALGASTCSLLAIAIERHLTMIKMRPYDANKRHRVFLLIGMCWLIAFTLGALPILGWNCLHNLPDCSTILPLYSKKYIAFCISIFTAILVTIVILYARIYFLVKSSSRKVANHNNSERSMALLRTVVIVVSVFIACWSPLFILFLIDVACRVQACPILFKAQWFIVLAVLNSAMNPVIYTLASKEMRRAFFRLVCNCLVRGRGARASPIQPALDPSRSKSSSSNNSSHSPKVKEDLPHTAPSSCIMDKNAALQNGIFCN
Method: (§1) Method B: Receptor [^35S] GTPγS SPA Binding Assays
(§2) Membranes prepared from S1P1 or S1P3 transfected CHO cells (2 μg protein) were incubated in 96-well white plates (CORNING® 3693) with test compounds diluted in DMSO, in 50 μl of reaction mixture containing 7.5 μA WGA-PVT beads (20 mg/ml), and 5 μM GDP, 20 mM HEPES pH 7.4, 100 mM NaCl, 1 mM EDTA, 5 mM MgCl2, 10 μg/ml saponin, 0.1% BSA, and 1 μM leupeptin. The assay was initiated with the addition of […] of 0.2 nM [^35S]-GTPγS (1250 Ci/mmol; NEN) in assay buffer. After 90 min incubation at room temperature, spin the plate at 1000 rpm for 5 min. The bound radionuclides were measured at TOPCOUNT®, expressed as % response relative to S1P (1 μM) activation. Data was analyzed using the four parameter logistic equation in Excel. The four parameters in the equation, Y=A+((B−A)/(1+((EC50/X)^D))), are described as following: A is the Y value (agonist activity) at the bottom plateau; B is the Y value at the top plateau; EC50 is the X value (agonist concentration) when the response is halfway between bottom and top; D is Hill coefficient. Curves were not generated for compounds having Ymax values were below 50%.
(§3) Compounds of the present invention and Comparative Compound A were tested in the Receptor [^35S] GTPγS Binding Assays (Method A) and Receptor [^35S] In some instances, the value is an average of multiple experiments where N is the number of experiments conducted that provided satisfactory dose response curves. When more than one batch of an example was tested, the value presented is from a batch which allowed a comparison of GTPγS S1P1 and GTPγS S1P3 in which the most number of experiments were performed. Preferably, the same batch was examined in Method A and Method B. Data was not averaged across different batches of an example compound.

[3] = biological target: T1, S1P1; test: Method B: Receptor [35S] GTPγS SPA Binding Assay, S1P1; format: biochemical; details: for EC50: Method B (SPA), S1P1 transfected CHO cell membranes; for GTPγS S1P3/S1P1 (Method B): ratio of S1P3 EC50 to S1P1 EC50, Method B
Method: as §1, §2, §3

[4] = biological target: T1, S1P1; test: Method A: Receptor [35S] GTPγS Binding Assay, S1P1; format: biochemical; details: ratio of S1P3 EC50 to S1P1 EC50, Method A
Method: Method A: Receptor [35S] GTPγS Binding Assays
Compounds were loaded in a 384 FALCON® v-bottom plate (0.5 μl/well in a 3-fold dilution). Membranes prepared from S1P1/CHO cells or EDG3-Gal5-bla HEK293T cells were added to the compound plate (40 μl/well, final protein 3 μg/well) with MULTIDROP®. [^35S]GTP (1250 Ci/mmol, Perkin Elmer) was diluted in assay buffer: 20 mM HEPES, pH7.5, 10 mM MgCl2, 150 mM NaCl, 1 mM EGTA, 1 mM DTT, 10 μM GDP, 0.1% fatty acid free BSA, and 10 μg/ml Saponin to 0.4 nM. 40 μl of the [^35S] GTP solution was added to the compound plate with a final concentration of 0.2 nM. The reaction was kept at room temperature for 45 min. At the end of incubation, all the mixtures in the compound plate were transferred to a 384 well FB filter plates via GPCR robot system. The filter plate was washed with water 4 times by using the modified manifold Embla plate washer and dried at 60° C. for 45 min. 30 μA of MicroScint 20 scintillation fluid was added to each well for counting at Packard TOPCOUNT®. EC50 is defined as the agonist concentration that corresponds to 50% of the Ymax (maximal response) obtained for each individual compound tested.
as §3

T1 sequence (P21453 whole entry): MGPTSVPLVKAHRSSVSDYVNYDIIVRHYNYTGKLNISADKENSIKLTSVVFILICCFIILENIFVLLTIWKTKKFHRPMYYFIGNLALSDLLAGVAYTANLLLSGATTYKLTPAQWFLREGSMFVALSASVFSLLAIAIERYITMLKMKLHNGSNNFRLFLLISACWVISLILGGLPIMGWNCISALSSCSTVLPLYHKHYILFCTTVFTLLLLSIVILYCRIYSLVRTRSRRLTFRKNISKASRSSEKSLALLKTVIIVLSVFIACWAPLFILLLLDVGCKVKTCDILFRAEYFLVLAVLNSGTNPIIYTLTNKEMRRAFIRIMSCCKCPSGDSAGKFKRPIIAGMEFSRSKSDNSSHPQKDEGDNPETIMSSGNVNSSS

IC50 [1] | EC50 [2] | EC50 [3] | GTPγS S1P3/S1P1 (Method B) [3] | GTPγS S1P3/S1P1 (Method A) [4] | Compound
1.1 nM | 1100 nM | 0.42 nM | 2,600 |  | O=C(O)C1CN(Cc2ccc(-c3noc(-c4cnn(-c5ccccn5)c4-c4ccccc4)n3)cc2)C1 [Example 10, 1-(4-(5-(5-phenyl-1-(pyridin-2-yl)-1H-pyrazol-4-yl)-1,2,4-oxadiazol-3-yl)benzyl)azetidine-3-carboxylic acid]
0.98 nM | 7100 nM | 2.1 nM | 3,400 |  | O=C(O)C1CN(Cc2ccc(-c3noc(-c4cnn(-c5ccccc5)c4Br)n3)cc2)C1 [Example 14, 1-(4-(5-(5-Bromo-1-phenyl-1H-pyrazol-4-yl)-1,2,4-oxadiazol-3-yl)benzyl)azetidine-3-carboxylic acid, 2,2,2-trifluoroacetic acid salt]
0.19 nM | 220 nM | 0.087 nM | 2,500 |  | O=C(O)C1CN(Cc2ccc(-c3noc(-c4cnn(-c5ccccn5)c4C4CCCC4)n3)cc2)C1 [Example 7, 1-(4-(5-(5-cyclopentyl-1-(pyridin-2-yl)-1H-pyrazol-4-yl)-1,2,4-oxadiazol-3-yl)benzyl)azetidine-3-carboxylic acid]
 |  |  | 78 | 1.2 | O=C(O)C1CN(Cc2ccc(-c3noc(-c4cc(-c5ccccc5)c(C(F)(F)F)s4)n3)cc2)C1 [Comp. A, 1-(4-(5-(4-phenyl-5-(trifluoromethyl)thiophen-2-yl)-1,2,4-oxadiazol-3-yl)benzyl)-azetidine-3-carboxylic acid, reference compound]
0.48 nM | 1700 nM | 0.15 nM | 11,000 |  | CC(C)Nc1c(-c2nc(-c3ccc(CN4CC(C(=O)O)C4)cc3)no2)cnn1-c1ccccc1 [Example 3, 1-(4-(5-(5-(isopropylamino)-1-phenyl-1H-pyrazol-4-yl)-1,2,4-oxadiazol-3-yl)benzyl)azetidine-3-carboxylic acid]
1.1 nM | 400 nM | 0.19 nM | 2,100 |  | CCNc1c(-c2nc(-c3ccc(CN4CC(C(=O)O)C4)cc3)no2)cnn1-c1ccccc1 [Example 4, 1-(4-(5-(5-(ethylamino)-1-phenyl-1H-pyrazol-4-yl)-1,2,4-oxadiazol-3-yl)benzyl)azetidine-3-carboxylic acid]
 | 2000 nM | 1.9 nM | 1,100 |  | O=C(O)C1CN(Cc2ccc(-c3noc(-c4cnn(-c5ccccc5)c4Cl)n3)cc2)C1 [Example 11, 1-(4-(5-(5-chloro-1-phenyl-1H-pyrazol-4-yl)-1,2,4-oxadiazol-3-yl)benzyl)azetidine-3-carboxylic acid]
1.7 nM | 9800 nM | 0.28 nM | 35,000 |  | CC(C)CNc1c(-c2nc(-c3ccc(CN4CC(C(=O)O)C4)cc3)no2)cnn1-c1ccccc1 [Example 12, 1-(4-(5-(5-(Isobutylamino)-1-phenyl-1H-pyrazol-4-yl)-1,2,4-oxadiazol-3-yl)benzyl)azetidine-3-carboxylic acid]
 | 710 nM | 1.3 nM | 550 |  | Cc1c(-c2nc(-c3ccc(CN4CC(C(=O)O)C4)cc3)no2)cnn1C1CCCCC1 [Example 9, 1-(4-(5-(1-cyclohexyl-5-methyl-1H-pyrazol-4-yl)-1,2,4-oxadiazol-3-yl)benzyl)azetidine-3-carboxylic acid]
3.1 nM | 51 nM | 0.17 nM | 300 |  | CCCCNc1c(-c2nc(-c3ccc(CN4CC(C(=O)O)C4)cc3)no2)cnn1-c1ccccc1 [Example 13, 1-(4-(5-(5-(n-butylamino)-1-phenyl-1H-pyrazol-4-yl)-1,2,4-oxadiazol-3-yl)benzyl)azetidine-3-carboxylic acid]
